This note sets out measurements from PMC8861063, “Increase water solubility of Centellaasiatica extract by indigenous bioenhancers could improve oral bioavailability and disposition kinetics of triterpenoid glycosides in beagle dogs” (Scientific Reports, 2022).

The conditions of data set [1]: dog, in vivo. From the text:
Eight healthy 8-month-old male beagles were obtained from the Chulalongkorn University Laboratory Animal Centre (CULAC), Chulalongkorn University. […] Food was provided twice a day, and water was available ad libitum. […] The animal experiments were approved by the Institutional Animal Care and Use Committee of the CULAC, Chulalongkorn University, Bangkok, Thailand (Protocol number 2073002, Approval date: February 21, 2020). All animal procedures were complied with the ethical principles and guidelines for the use of animals (National Research Council of Thailand, 2015). All animal experiments followed the ARRIVE reporting guidelines for documenting animal experiments.
(§1) One or two capsules containing the test substance were orally administered at 8:00 AM to the dogs following the experimental plan. […] The blood samples were centrifuged at 5000g for 10 min at 4 °C to collect plasma and then stored at − 80 °C until analysis. […] The volume of urine and weight of faeces were recorded and all samples were stored at − 80 °C until analysis. All dogs were reused with a washed out period of two weeks, to allow complete excretion of bioactive triterpenoids.
All biological samples (plasma, urine, and faeces) were subjected to protein precipitation to extract the major triterpenoids from the samples. Two hundred microliters of methanol with two internal standards (glycyrrhizin and glycyrrhetinic acid) was added to 50 µL of the biological sample and mixed for 10 min. Then, the sample was centrifuged at 12,000g for 10 min at 4 °C, and 10 µL of supernatant was injected into the LC–MS/MS system. Faeces samples were homogenised by adding methanol, then the mixture was centrifuged at 1500g for 10 min at 4 °C to collect the supernatant. In the case of the concentration of the biological sample exceeded the linear calibration curve; blank matrices were used to dilute before protein precipitation. For method validation, all major components in the biological sample of dog were determined and validated according to the previous reports with little modification.
The LC–MS/MS system was set up according to a previous published method. In brief, an LCMS-8060 coupled with a triple quadrupole mass spectrometer was controlled by LabSolution software version 5.86 (Shimadzu Corp.). A Synergi Fusion-RP C18 column (Phenomenex Inc.) maintained at 40 °C was used as the stationary phase. The analysis was run using absolute methanol and 0.2% formic acid in water as the mobile phase.
(§2) To evaluate significant differences between the pre- and post-dose of the test substances to the health status of dogs, the biochemical data were compared by using Student’s t-test. PK solution software version 2.0 (Summit Research Services) was used to analyse pharmacokinetic parameters by non-compartmental analysis. Cmax and Tmax were directly determined from plasma concentration–time curves. AUC0-24 was calculated using the trapezoidal rule and extrapolated to time infinity by the equation AUC0-inf = AUC0–24 + (Clast/kel), where Clast is the last observed plasma concentration after dosing and kel is the elimination rate constant. MRT was calculated as AUMC0-inf/AUC0-inf, where AUMC0-inf is the area under the first moment concentration–time curve. Vd was equal to dose/C0, where C0 is the plasma concentration at time zero and CL was calculated as dose/AUC0-inf. […] Absolute bioavailability was calculated as (AUCp.o./DOSEp.o.)/(AUCi.v./DOSEi.v.) × 100. Relative bioavailability was calculated from (AUCCTS/DOSECTS)/(AUCECa/DOSEECa) × 100. Before performing the statistical analysis in SPSS version 22.0 (IBM Corp.), the Shapiro–Wilk test was used to determine whether the data were normally distributed. A paired Student’s t test or Wilcoxon signed-rank test was used to determine significant differences of pharmacokinetic parameters between the groups.

The conditions of data set [2]: dog, in vivo. The protocol: as §1
as §2, with “PK solution software version 2.0 (Summit Research Services) was used to analyse pharmacokinetic parameters by non-compartmental analysis.” left out, “Before performing the statistical analysis in SPSS version 22.0 (IBM Corp.), the Shapiro–Wilk test was used to determine whether the data were normally distributed. A paired Student’s t test or Wilcoxon signed-rank test was used to determine significant differences of pharmacokinetic parameters between the groups.” left out
This is another data set of the same source.

The conditions of data set [3]: dog, in vivo, iv. Here is the method: as §1
All biological samples (plasma, urine, and faeces) were subjected to protein precipitation to extract the major triterpenoids from the samples. […] For method validation, all major components in the biological sample of dog were determined and validated according to the previous reports with little modification. […]
To evaluate significant differences between the pre- and post-dose of the test substances to the health status of dogs, the biochemical data were compared by using Student’s t-test. […] Cmax and Tmax were directly determined from plasma concentration–time curves. AUC0-24 was calculated using the trapezoidal rule and extrapolated to time infinity by the equation AUC0-inf = AUC0–24 + (Clast/kel), where Clast is the last observed plasma concentration after dosing and kel is the elimination rate constant. […] Absolute bioavailability was calculated as (AUCp.o./DOSEp.o.)/(AUCi.v./DOSEi.v.) × 100. […]

`C[C@H]1[C@H](C)CC[C@]2(C(=O)O)CC[C@]3(C)C(=CC[C@@H]4[C@@]5(C)C[C@@H](O)[C@H](O)[C@@](C)(CO)[C@@H]5CC[C@]43C)[C@H]12` [asiatic acid]: the “plasma concentration compared with madecassic acid” value in data set [1] (po) is listed as “approximately tenfold higher”.
Regarding `C[C@H]1[C@H](C)CC[C@]2(C(=O)O[C@@H]3O[C@H](CO[C@@H]4O[C@H](CO)[C@@H](O[C@@H]5O[C@@H](C)[C@H](O)[C@@H](O)[C@H]5O)[C@H](O)[C@H]4O)[C@@H](O)[C@H](O)[C@H]3O)CC[C@]3(C)C(=CC[C@@H]4[C@@]5(C)C[C@@H](O)[C@H](O)[C@@](C)(CO)[C@@H]5[C@H](O)C[C@]43C)[C@H]12` [madecassoside], the “measured biochemical parameters (haematology, kidney, liver functions), pre-dose versus post-dose” value in data set [2] is reported as “no significant differences”. For the same molecule, in data set [3], the “excretion route of parent triterpenoid glycosides” value is reported as “excreted via urine within 24 h”. In data set [1] (iv, 0.46 mg/kg), the AUC0-24 of madecassoside is 15,662 ± 1927 µg.h/L, the AUC0-inf of madecassoside was 15,705 ± 1938 µg.h/L, the Half-life of madecassoside is 3.88 (0.40) h and the MRT of madecassoside is recorded as 8.05 ± 0.99 h. Also, in data set [1] (iv, 0.46 mg/kg), the Vd of madecassoside came out at 0.18 ± 0.05 L/kg.
